Measurements published in patent publication US12037333B2, “Pyridopyrazine and pyridotriazine inhibitors of influenza virus replication” (priority 2018, dated 2024).

Tested on: Influenza type A (strain A/PR/8/34, ATCC VR-95)
Test: Influenza antiviral assay: inhibition of virus-induced cytopathic effects (CPE) in MDCK cells, XTT dye reduction
Type: cell-based
Conditions: strain A/PR/8/34, MDCK cells, CPE inhibition at 4 days
[1] = Influenza A virus, H1N1 / PR/8, MDCK, 96 h

SMILES | EC50 [1] [nM] | EC50 (Influenza A (H1N1)) [nM]
O=C1c2c(O)c(=O)ccn2N(C23c4ccccc4CC2Cc2cc(F)c(F)cc23)CN1Cc1cccc(F)c1 (stereo not drawn) [Compound A24, 1-(2,3-difluoro-9a,10-dihydroindeno[1,2-a]inden-4b(9H)-yl)-3-(3-fluorobenzyl)-5-hydroxy-2,3-dihydro-1H-pyrido[2,1-f][1,2,4]triazine-4,6-dione] | > 500 | 
CN1CN(C23C(=Cc4ccccc42)Cc2ccccc23)n2ccc(=O)c(O)c2C1=O (stereo not drawn) [Compound A30, 5-hydroxy-1-(indeno[1,2-a]inden-4b(9H)-yl)-3-methyl-2,3-dihydro-1H-pyrido[2,1-f][1,2,4]triazine-4,6-dione] | < 125 | 
O=C1c2c(O)c(=O)ccn2N(C23c4ccccc4CC2Cc2c(Cl)cccc23)CN1CC1CCCC1 (stereo not drawn) [Compound A104] | > 500 | 
O=C1c2c(O)c(=O)ccn2N(C23c4ccccc4CC2Cc2cc(F)c(F)cc23)CN1Cc1ccc(F)cc1 (stereo not drawn) [Compound A23, 1-(2,3-Difluoro-9a,10-dihydro-9H-indeno[1,2-a]inden-4b-yl)-3-(4-fluoro-benzyl)-5-hydroxy-2,3-dihydro-1H-pyrido[2,1-f][1,2,4]triazine-4,6-dione] | > 500 | 
CCC12Cc3ccccc3C1(N1CN(C)C(=O)c3c(O)c(=O)ccn31)c1ccccc1C2 (stereo not drawn) [Compound A162] | < 125 | 
CC(C)N1CN(C23c4ccccc4CC2(C)Cc2c3ccc(F)c2F)n2ccc(=O)c(O)c2C1=O (stereo not drawn) [Compound A167] | < 125 | 
O=C1c2c(O)c(=O)ccn2N(C23c4ccccc4CC2Cc2cc(F)c(F)cc23)CN1CCc1ccccc1 (stereo not drawn) [Compound A22, 1-(2,3-difluoro-9a,10-dihydroindeno[1,2-a]inden-4b(9H)-yl)-5-hydroxy-3-phenethyl-2,3-dihydro-1H-pyrido[2,1-f][1,2,4]triazine-4,6-dione] | 250 to 375 | 
CN1CN(C23c4ccccc4CC2Cc2cc(F)c(F)cc23)n2ccc(=O)c(O)c2C1=O (stereo not drawn) [Compound A19, 1-(2,3-difluoro-9a,10-dihydroindeno[1,2-a]inden-4b(9H)-yl)-5-hydroxy-3-methyl-2,3-dihydro-1H-pyrido[2,1-f][1,2,4]triazine-4,6-dione] | < 125 | 
O=C1c2c(O)c(=O)ccn2N(C23c4ccccc4CC2Cc2c(Cl)cccc23)CN1CC(F)F (stereo not drawn) [Compound A105] | < 125 | 
O=C1c2c(O)c(=O)ccn2N(C23c4ccccc4CC2Cc2c3ccc(F)c2F)CN1CC(F)F (stereo not drawn) [Compound A84] | < 125 | 
O=C1c2c(O)c(=O)ccn2N(C23c4ccccc4CC2Cc2cc(F)c(F)cc23)CN1CC1CCOCC1 (stereo not drawn) [Compound A16, 1-(2,3-Difluoro-9a,10-dihydro-9H-indeno[1,2-a]inden-4b-yl)-5-hydroxy-3-(tetrahydro-pyran-4-ylmethyl)-2,3-dihydro-1H-pyrido[2,1-f][1,2,4]triazine-4,6-dione] | < 125 | 
CCN1CN(C23c4ccccc4CC2Cc2c3ccc(F)c2F)n2ccc(=O)c(O)c2C1=O (stereo not drawn) [Compound A14, 1-(1,2-Difluoro-9a,10-dihydro-9H-indeno[1,2-a]inden-4b-yl)-3-ethyl-5-hydroxy-2,3-dihydro-1H-pyrido[2,1-f][1,2,4]triazine-4,6-dione] | < 125 | 
CN1CN(C23c4cc(F)c(F)cc4CC2Cc2cc(F)c(F)cc23)n2ccc(=O)c(O)c2C1=O (stereo not drawn) [Compound A8, 5-Hydroxy-3-methyl-1-(2,3,6,7-tetrafluoro-9a,10-dihydro-9H-indeno[1,2-a]inden-4b-yl)-2,3-dihydro-1H-pyrido[2,1-f][1,2,4]triazine-4,6-dione] | 375 to 500 | 
CN1CN(C23c4ccccc4CC2(C)Cc2ccccc23)n2ccc(=O)c(O)c2C1=O (stereo not drawn) [Compound A150] | < 125 | 
O=C1c2c(O)c(=O)ccn2N(C23c4cccc(F)c4CC2Cc2c(F)cccc23)CN1CC1CCCCO1 (stereo not drawn) [Compound A130] | > 500 | 
CCN1CN(C23c4ccccc4CC2Cc2cc(F)c(F)cc23)n2ccc(=O)c(O)c2C1=O (stereo not drawn) [Compound A10, 1-(2,3-Difluoro-9a,10-dihydro-9H-indeno[1,2-a]inden-4b-yl)-3-ethyl-5-hydroxy-2,3-dihydro-1H-pyrido[2,1-f][1,2,4]triazine-4,6-dione] | 250 to 375 | 
O=C1c2c(O)c(=O)ccn2N(C23c4ccccc4CC2Cc2c(Cl)cccc23)CN1CCF (stereo not drawn) [Compound A114] |  | 125 to 250
O=C1c2c(O)c(=O)ccn2N(C23c4ccccc4CC2Cc2ccccc23)CN1Cc1cccc(Cl)c1F (stereo not drawn) [Compound A31, 3-(3-chloro-2-fluorobenzyl)-1-(9a,10-dihydroindeno[1,2-a]inden-4b(9H)-yl)-5-hydroxy-2,3-dihydro-1H-pyrido[2,1-f][1,2,4]triazine-4,6-dione] | > 500 | 
Cc1cccc2c1CC1Cc3c(F)cccc3C21N1CN(C)C(=O)c2c(O)c(=O)ccn21 (stereo not drawn) [Compound A67] | < 125 | 
O=C1c2c(O)c(=O)ccn2N(C23c4ccccc4CC2Cc2c(Cl)cccc23)CN1CC1CCC1 (stereo not drawn) [Compound A112] | 375 to 500 | 
CCCN1CN(C23c4ccccc4CC2Cc2c3ccc(F)c2F)n2ccc(=O)c(O)c2C1=O (stereo not drawn) [Compound A148] | < 125 | 
O=C1c2c(O)c(=O)ccn2N(C23c4ccccc4CC2Cc2c3ccc(F)c2F)CN1CCF (stereo not drawn) [Compound A74] | 125 to 250 | 
CC1N(CC(F)F)C(=O)c2c(O)c(=O)ccn2N1C12c3ccccc3CC1Cc1c(F)cccc12 (stereo not drawn) [Compound A139] | 125 to 250 | 
CN1CN(C23c4ccccc4CC2(C)Cc2cc(F)ccc23)n2ccc(=O)c(O)c2C1=O (stereo not drawn) [Compound A126] | 125 to 250 | 
CCN1CN(C23c4ccccc4CC2(C)Cc2ccccc23)n2ccc(=O)c(O)c2C1=O (stereo not drawn) [Compound A147] | < 125 | 
COC12Cc3ccccc3C1(N1CN(C)C(=O)c3c(O)c(=O)ccn31)c1ccccc1C2 (stereo not drawn) [Compound A62] | 125 to 250 | 

SMILES | EC50 [1] [nM] | EC50 (Influenza A (H1N1)) [nM]
O=C1c2c(O)c(=O)ccn2N(C23c4ccccc4CC2Cc2c3ccc(F)c2F)CN1CCc1cccc(F)c1 (stereo not drawn) [Compound A27, 1-(1,2-difluoro-9a,10-dihydroindeno[1,2-a]inden-4b(9H)-yl)-3-(3-fluorophenethyl)-5-hydroxy-2,3-dihydro-1H-pyrido[2,1-f][1,2,4]triazine-4,6-dione] | 125 to 250 | 
CN1CN(C23c4ccc(F)cc4CC2Cc2cc(F)ccc23)n2ccc(=O)c(O)c2C1=O (stereo not drawn) [Compound A3, 1-(2,7-Difluoro-9a,10-dihydro-9H-indeno[1,2-a]inden-4b-yl)-5-hydroxy-3-methyl-2,3-dihydro-1H-pyrido[2,1-f][1,2,4]triazine-4,6-dione] | 125 to 250 | 
CCN1CN(C23c4cccc(C)c4CC2Cc2c(F)cccc23)n2ccc(=O)c(O)c2C1=O (stereo not drawn) [Compound A66] | 125 to 250 | 
COCCN1CN(C23c4cccc(F)c4CC2Cc2c(F)cccc23)n2ccc(=O)c(O)c2C1=O (stereo not drawn) [Compound A49] | < 125 | 
CN1C(=O)c2c(O)c(=O)ccn2N(C23C(=Cc4c(F)cccc42)Cc2c(F)cccc23)C1CN (stereo not drawn) [Compound A106, 2-(aminomethyl)-1-(1,8-difluoroindeno[1,2-a]inden-4b(9H)-yl)-5-hydroxy-3-methyl-2,3-dihydro-1H-pyrido[2,1-f][1,2,4]triazine-4,6-dione] | 125 to 250 | 
CCN1CN(C23c4cccc(F)c4CC2Cc2c(Cl)cccc23)n2ccc(=O)c(O)c2C1=O (stereo not drawn) [Compound A151] | < 125 | 
CCN1C(=O)c2c(O)c(=O)ccn2N(C23c4ccccc4CC2Cc2c(Cl)cccc23)C1C (stereo not drawn) [Compound A95] | 125 to 250 | 
O=C1c2c(O)c(=O)ccn2N(C23c4ccccc4CC2Cc2c(F)cccc23)CN1CC1CCOCC1 (stereo not drawn) [Compound A75] | < 125 | 
CCC1N(C)C(=O)c2c(O)c(=O)ccn2N1C12c3ccccc3CC1Cc1ccccc12 (stereo not drawn) [Compound A166] | < 125 | 
CN1CN(C23c4cccc(F)c4CC2(C)Cc2c(F)cccc23)n2ccc(=O)c(O)c2C1=O (stereo not drawn) [Compound A54] | < 125 | 
CN1CN(C23c4ccccc4CC2Cc2c3ccc(Cl)c2Cl)n2ccc(=O)c(O)c2C1=O (stereo not drawn) [Compound A146] | < 125 | 
Cc1c(F)ccc2c1CC1Cc3ccccc3C21N1CN(C)C(=O)c2c(O)c(=O)ccn21 (stereo not drawn) [Compound A78] | < 125 | 
CC(CCN1CN(C23c4ccccc4CC2Cc2c3ccc(F)c2F)n2ccc(=O)c(O)c2C1=O)c1ccccc1 (stereo not drawn) [Compound A91] | > 500 | 
CCN1CN(C23c4ccccc4CC2Cc2c3ccc(F)c2Cl)n2ccc(=O)c(O)c2C1=O (stereo not drawn) [Compound A47] | < 125 | 
CC(CCN1CN(C23c4ccccc4CC2Cc2ccccc23)n2ccc(=O)c(O)c2C1=O)c1ccccc1 (stereo not drawn) [Compound A32, 1-(9a,10-dihydroindeno[1,2-a]inden-4b(9H)-yl)-5-hydroxy-3-(3-phenylbutyl)-2,3-dihydro-1H-pyrido[2,1-f][1,2,4]triazine-4,6-dione] | > 500 | 
CCN1CN(C23c4ccccc4CC2(C)Cc2c3ccc(F)c2F)n2ccc(=O)c(O)c2C1=O (stereo not drawn) [Compound A164] | < 125 | 
Cc1cc(CN2CN(C34c5ccccc5CC3Cc3ccccc34)n3ccc(=O)c(O)c3C2=O)no1 (stereo not drawn) [Compound A144] | < 125 | 
O=C1c2c(O)c(=O)ccn2N(C23c4ccccc4CC2Cc2ccccc23)CN1CCOc1ccccc1 (stereo not drawn) [Compound A7, 1-(9a,10-Dihydro-9H-indeno[1,2-a]inden-4b-yl)-5-hydroxy-3-(2-phenoxy-ethyl)-2,3-dihydro-1H-pyrido[2,1-t][1,2,4]triazine-4,6-dione] | > 500 | 
CN1CN(C23c4ccccc4CC2(C)Cc2c3ccc(F)c2F)n2ccc(=O)c(O)c2C1=O (stereo not drawn) [Compound A165] | < 125 | 
CC1N(C)C(=O)c2c(O)c(=O)ccn2N1C12c3cccc(F)c3CC1Cc1c(F)cccc12 (stereo not drawn) [Compound A73] | < 125 | 
O=C1c2c(O)c(=O)ccn2N(C23c4ccccc4CC2Cc2c(F)cccc23)CN1CC(F)F (stereo not drawn) [Compound A83] | < 125 | 
CCN1CN(C23c4cccc(F)c4CC2(C)Cc2c(F)cccc23)n2ccc(=O)c(O)c2C1=O (stereo not drawn) [Compound A51] | < 125 | 
O=C1c2c(O)c(=O)ccn2N(C23c4cccc(F)c4CC2Cc2c(F)cccc23)CN1CCCF (stereo not drawn) [Compound A72] | < 125 | 
CC1N(CC(F)F)C(=O)c2c(O)c(=O)ccn2N1C12c3ccccc3CC1Cc1c2ccc(F)c1F (stereo not drawn) [Compound A137] |  | 125 to 250
CC1N(CC2CC2)C(=O)c2c(O)c(=O)ccn2N1C12c3ccccc3CC1Cc1c(F)cccc12 (stereo not drawn) [Compound A129] | 250 to 375 | 
